The test system of data set [1] is K562. The experiment in a line: Cytotoxicity against human K562 cells after 24 hrs by MTT assay. It counts as functional, cell-based. As to conditions: K562, 24 h. Background: Tetrazolium dyes change colour on reduction, which living cells bring about.
The next data set deals with MDA-MB-231. Put plainly: Growth inhibition of human MDA-MB-231 cells at 10 uM after 24 hrs by MTT assay. It counts as functional. As to conditions: MDA-MB-231, 24 h, read-out: GI.
The subject of data set [2] is HepG2. The experiment in a line: Growth inhibition of human HepG2 cells at 10 uM after 24 hrs by MTT assay. It counts as functional. The following applies: HepG2, 24 h, read-out: GI.
The test system of data set [3] is K562. Put plainly: Growth inhibition of human K562 cells at 10 uM after 24 hrs by MTT assay. It counts as functional. As to conditions: K562, 24 h, read-out: GI.
The nature of data set [4]: Growth inhibition of human HEK293 cells at 10 uM after 24 hrs by MTT assay. It counts as cell-based. As to conditions: read-out: GI.
The next data set concerns Saccharomyces cerevisiae. The experiment in a line: Inhibition of yeast SIRT2 assessed as derepression of Ura3 gene at 50 uM in presence of 5-fluoroorotic acid.
For data set [5], the system named is HepG2. Put plainly: Ratio of doxorubicin IC50 to compound IC50 for human HepG2 cells. It counts as functional.
The subject of data set [6] is HepG2. Put plainly: Cytotoxicity against human HepG2 cells after 24 hrs by MTT assay. It counts as functional, cell-based. The following applies: HepG2, 24 h.

In general, IC50 refers to the concentration at which inhibition is half-maximal. Higher therefore signals a need for much substance. As to `Cc1ccc(NC(=O)c2ccc(CN3CCN(C)CC3)cc2)cc1Nc1nccc(-c2cccnc2)n1` [IMATINIB], in the data set with K562 [1], the IC50 worked out at 0.1 µM.

Regarding `CCOC(=O)/C=C/c1c(-c2ccccc2)oc(=O)c2c3c(sc12)CCCCC3`, the inhibition of growth at 10 µM is 42.6% in the data set on MDA-MB-231, 12% in the data set with HepG2 [2] and 27.4% with K562 [3]. In addition, in data set [4], the inhibition at 24 h, 10 µM was 1.11%.

Consider `O=c1oc(-c2ccccc2)c(C#Cc2ccccc2)c2sc3c(c12)CCCCC3`, for which the figures for the inhibition of growth at 10 µM in the data set with MDA-MB-231, in the data set on HepG2 [2] and with K562 [3] were 34.7%, 20.1% and 13.9%, respectively. For the same compound, the inhibition at 24 h, 10 µM in data set [4] came to 1.7%.

Consider `CCCCCC#Cc1c(-c2ccccc2)oc(=O)c2c3c(sc12)CCCCC3`, for which the inhibition of growth at 10 µM with MDA-MB-231 worked out at 41.9%; in the data set with HepG2 [2] it was 24.8%; in the data set on K562 [3], 12.3%. Also, the inhibition at 24 h, 10 µM in data set [4] was 0.44%.

Consider `O=c1oc(-c2ccccc2)c(-c2ccccc2)c2sc3c(c12)CCCCC3`, for which the inhibition of growth at 10 µM in the data set on MDA-MB-231 came out at 7.42%; with HepG2 [2], 35.9%; in the data set with K562 [3], 24%. The inhibition at 24 h, 10 µM in data set [4] was found to be 0.01%.

`CCCCC#Cc1c(-c2ccccc2)oc(=O)c2c3c(sc12)CCCCC3`: the results for the inhibition of growth at 10 µM in the data set on MDA-MB-231, with HepG2 [2] and in the data set on K562 [3] were 25.2%, 24.1% and 66.4%, respectively. Moreover, in the data set on K562 [1], 2.28 µM corresponded to half-maximal inhibition (IC50). In addition, the inhibition in the data set on Saccharomyces cerevisiae came to 30%. In addition, the inhibition at 24 h, 10 µM in data set [4] was determined as 3.2%.

Consider `Cc1ccc(-c2oc(=O)c3c4c(sc3c2I)CCCC4)cc1`, for which the inhibition of growth at 10 µM amounted to 32.5% with MDA-MB-231, 68.2% with HepG2 [2] and 64.2% with K562 [3]. Further, the “Ratio IC50” value in the data set on HepG2 [5] is given as >2. For the same compound, the IC50 was 2.33 µM with K562 [1] and 2.38 µM in the data set with HepG2 [6]. The inhibition in the data set with Saccharomyces cerevisiae was 30%. Also, the inhibition at 24 h, 10 µM in data set [4] is 0%.

With `O=c1oc(-c2ccccc2)c(I)c2sc3c(c12)CCCCC3`, the inhibition of growth at 10 µM with MDA-MB-231 is 40.1%; in the data set with HepG2 [2] it was 12%; in the data set with K562 [3], 30.3%. In data set [4], the inhibition at 24 h, 10 µM came out at 0.23%.

Regarding `CC(C)(C)OC(=O)N1CCc2c(sc3c(I)c(-c4ccccc4)oc(=O)c23)C1`, the inhibition of growth at 10 µM was 27.5% in the data set with MDA-MB-231, 15.5% with HepG2 [2] and 8.34% with K562 [3]. Moreover, in data set [4], the inhibition at 24 h, 10 µM came to 9.03%.

With `O=c1oc(-c2ccccc2)c(-c2ccccc2)c2sc3c(c12)CCC3`, the inhibition of growth at 10 µM in the data set with MDA-MB-231 came to 12.4%; in the data set with HepG2 [2], 13.4%; in the data set on K562 [3], 26.7%. In addition, the inhibition at 24 h, 10 µM in data set [4] is 4%.

Consider `CC(C)(O)C#Cc1c(-c2ccccc2)oc(=O)c2c3c(sc12)CCCCC3`, for which the inhibition of growth at 10 µM in the data set with MDA-MB-231 is 21.6%; in the data set with HepG2 [2] it was 25%; with K562 [3] it was 9.32%. Besides, the inhibition at 24 h, 10 µM in data set [4] was 4.2%.

Turning to `O=c1oc(-c2ccccc2)c(I)c2sc3c(c12)CCCC3`, the inhibition of growth at 10 µM came out at 22.7% in the data set on MDA-MB-231, 0% in the data set on HepG2 [2] and 38.1% with K562 [3]. Also, in data set [4], the inhibition at 24 h, 10 µM was determined as 0.6%.

With `O=c1oc(-c2ccccc2)c(-c2ccc(O)cc2)c2sc3c(c12)CCCC3`, the results for the inhibition of growth at 10 µM in the data set with MDA-MB-231, in the data set with HepG2 [2] and in the data set on K562 [3] were 22.9%, 23% and 9.85%, respectively. For the same compound, in data set [4], the inhibition at 24 h, 10 µM is 0.5%.
